Laboratory results reported in paper PMC3281083, “Impact of the Herbal Medicine Sophora flavescens on the Oral Pharmacokinetics of Indinavir in Rats: The Involvement of CYP3A and P-Glycoprotein” (PLoS ONE, 2012).
Where two headings read alike, the source gives them in different places.

Experiments:
[1] = parameters: method as in PMID 10604964, PMID 10497146; settings: rats; cited from earlier work
[2] = parameters: method as in PMID 15771225; settings: low solubility/high permeability/extensive metabolism; cited from earlier work
[3] = Multiple-dose oral pharmacokinetics of indinavir (plasma) with co-administered Sophora preparations; assay type: in vivo, Male Wistar rats; settings: male, Wistar, rat, 40 mg/kg; for AUC(0-inf) / CL/F / Cmax / Tmax: po; for AUC(0-inf): read-out: AUC0-∞ of indinavir
Method: Thirty rats were randomly designated as vehicle control, low-dose and high-dose Sophora treatment groups (ten rats in each group). A separate experiment was performed using eighteen rats designated as vehicle control, oxymatrine capsule and Sophora EA fraction groups (six rats in each group). […] Indinavir from […]® capsule (Merck & CO. Inc., Whitehouse Station, NJ, USA) was dissolved in 50 mM citric acid, and the oxymatrine capsule contents were dissolved in distilled water. […] The treatments were given twice a day (9 a.m. and 7 p.m.) for 7 consecutive days. The dosages were designed on the basis of clinical doses in human. The daily dose of S. flavescens recommended by the Chinese Pharmacopoeia is 4.5-9 g of raw herb per day. […] Taking the low and high ends of these dose ranges, and using a conversion based on the body-surface-area ratio between rats and human, an animal dose range of 0.45-1.8 g/kg/day (raw herb equivalent) was estimated for experimental rats. […] Plasma was obtained by centrifugation at 7,000× g for 15 min at 4°C and frozen at -80°C prior to analysis. […] Organ tissues, including liver and intestine, were isolated, rinsed with saline, blotted dried, snap-frozen in liquid nitrogen, and stored at -80°C until use. […] Midazolam was used as the internal standard. […] The residues were reconstituted with 200 μL of methanol-water (v/v, 1∶1) solution. The faeces were homogenized in about 4-fold volume of distilled water. The homogenates were extracted with equal volume of acetonitrile. After centrifugation, 1 mL of the supernatant was transferred to a glass tube, and was subsequently subjected to addition of midazolam, alkalization, extraction with ethyl acetate, drying and reconstitution. All reconstituted samples (60 μL) were separated on a Prevail C18 column (250 mm×4.6 mm […]) by an Agilent 1100 HPLC system (Agilent Technologies, Santa Clara, CA, USA). The flow rate was 0.8 mL/min. […] The effluent was introduced to APCI-MS (Agilent 1100 series LC/MSD Trap SL system, Santa Clara, CA, USA) with positive detection mode. […] Extract ion chromatograms at m/z 614 (indinavir) and m/z 326 (midazolam) were used for quantification (Figure S1). Quantification of indinavir was performed on six levels of standards in blank plasma or faeces homogenate. […] The recovery of the analyte ranged from 80% to 90%. […] The area under the plasma concentration-time curves from zero to infinity (AUC0-∞) was calculated by the trapezoidal rules. Clearance (CL) was calculated by the equation (F×Dose)/AUC0-∞, where F is the fraction of dose available in the systemic circulation. Peak plasma concentration (Cmax) and the time when it occurred (T max) were derived directly from the curves. Statistical differences were determined by unpaired Student's t test or one-way analysis of variance (one-way ANOVA) followed by Dunnett's post test. All tests were two-tailed and the significance was set at P<0.05.

[4] = indinavir 40 mg/kg orally, multiple dosage, with EA fraction 0.164 g/kg/day, mean ± S.E.M.
[5] = indinavir 40 mg/kg orally, multiple dosage, with Oxymatrine (capsule) 90 mg/kg/day, mean ± S.E.M.
[6] = indinavir 40 mg/kg orally, multiple dosage, with Sophora extract 0.316 g/kg/day, mean ± S.E.M.
[7] = indinavir 40 mg/kg orally, multiple dosage, with Sophora extract 1.26 g/kg/day, mean ± S.E.M.
[8] = indinavir 40 mg/kg orally, multiple dosage, with vehicle control, mean ± S.E.M.

**Q.** Which Oral bioavailability [1] does the source give for `CC(C)(C)NC(=O)[C@@H]1CN(Cc2cccnc2)CCN1C[C@@H](O)C[C@@H](Cc1ccccc1)C(=O)N[C@H]1c2ccccc2C[C@H]1O` [indinavir] here?
**A.** 26%

**Q.** What about the “Metabolic (drug disposition) class” value [2] of the same compound?
**A.** Class 2

**Q.** What about the C0 ([3]; oral, day 8, before last indinavir dose, detectable, below limit of quantification, read-out: Plasma indinavir concentration at time zero) of the same compound?
**A.** < 50 ng/mL

**Q.** And the AUC(0-inf) ([3]; indinavir 40 mg/kg orally twice a day for 7 days, last dose day 8, with vehicle control (1.5% Tween 80), mean ± S.E.M.)?
**A.** 16100 ± 990 ng·h/mL

**Q.** What about the CL/F [3, 4] of the same compound?
**A.** 57.6 mL/min/kg

**Q.** What about the Cmax [3, 4] of the same compound?
**A.** 8410 ± 860 ng/mL

**Q.** And the AUC(0-inf) [3, 4]?
**A.** 12300 ± 1310 ng·h/mL

**Q.** What about the Tmax ([3]; indinavir 40 mg/kg orally, multiple dosage, with EA fraction 0.164 g/kg/day, mean ± S.E.M., read-out: T max of indinavir) of the same compound?
**A.** 40.2 ± 9 min

**Q.** What about the CL/F [3, 5] of the same compound?
**A.** 159 mL/min/kg

**Q.** And the Cmax [3, 5]?
**A.** 4970 ± 810 ng/mL

**Q.** And the AUC(0-inf) [3, 5]?
**A.** 5290 ± 1110 ng·h/mL

**Q.** What about the Tmax ([3]; indinavir 40 mg/kg orally, multiple dosage, with Oxymatrine (capsule) 90 mg/kg/day, mean ± S.E.M., read-out: T max of indinavir) of the same compound?
**A.** 25.2 ± 7.2 min

**Q.** And the CL/F [3, 6]?
**A.** 101 mL/min/kg

**Q.** What about the Cmax [3, 6] of the same compound?
**A.** 7170 ± 690 ng/mL

**Q.** What about the AUC(0-inf) [3, 6] of the same compound?
**A.** 7230 ± 870 ng·h/mL

**Q.** What about the Tmax ([3]; indinavir 40 mg/kg orally, multiple dosage, with Sophora extract 0.316 g/kg/day, mean ± S.E.M., read-out: T max of indinavir) of the same compound?
**A.** 37.2 ± 7.2 min

**Q.** What about the CL/F [3, 7] of the same compound?
**A.** 316 mL/min/kg

**Q.** And the Cmax [3, 7]?
**A.** 3090 ± 1080 ng/mL

**Q.** And the AUC(0-inf) [3, 7]?
**A.** 2780 ± 610 ng·h/mL

**Q.** What about the Tmax ([3]; indinavir 40 mg/kg orally, multiple dosage, with Sophora extract 1.26 g/kg/day, mean ± S.E.M., read-out: T max of indinavir) of the same compound?
**A.** 30 ± 11.4 min

**Q.** And the CL/F [3, 8]?
**A.** 42.8 mL/min/kg

**Q.** And the Cmax [3, 8]?
**A.** 11500 ± 670 ng/mL

**Q.** What about the Tmax ([3]; indinavir 40 mg/kg orally, multiple dosage, with vehicle control, mean ± S.E.M., read-out: T max of indinavir) of the same compound?
**A.** 30 ± 6 min

**Q.** And the Tmax ([3]; oral, read-out: T max of indinavir determined in our study)?
**A.** 30 to 37 min
